Experimental data reported in patent US6753171B2, “Site-specific cell perforation technique” (Center for Advanced Science and Technology Incubation, Ltd., priority 1998, dated 2004).

Experiments:
[1] = Solubility of BAT in aqueous solution; format: physicochemical; conditions: within acidic aqueous solutions (bivalent positive charge)
From the text: The thiophene oligomer having amino-methyl residue at the terminal, has a high solubility compared with other derivatives of the same type because of this amino-methyl residue. Solubility changes with the dissociation state of this amino-methyl residue. […] In aqueous solutions near a pH region suitable for the body (around 7.4), it has a feature of having both positively-charged monovalent BAT maintaining a high solubility, and non-charged BAT that agglutinates easily into a colloid state. Under this pH condition, by perfusing cells within a BAT-dispersed solution, this molecule can easily attach onto the cell surface. The hydrophilicity of BAT molecule is a novel feature that is not seen in either modified thiophene oligomers starting with α-terthienyl, or in other molecules designed as conductive high molecular monomers.

PC12 cells [2] = experiment: Cell survival rate after injection treatment (LY maintaining rate); format: cell-based
Procedure: The survival rate of cells to which microinjection treatment by a physical shear force was given, and that for photosensitizing microinjection treated cells were compared.
LY was injected into cells by microinjection. In dead cells in which the cell membrane had collapsed, LY rapidly diffuses, and staining is lost (Cell, 14, 741-759 (1978)). Therefore, LY maintaining rate of injection treated cells was used as an indicator of cell survival rate, and the survival rate after 3 to 6 days following injection treatment was compared.

PC12 cells [3] = experiment: Microinjection treatment using site-specific membrane disruption: success rate of Lucifer Yellow injection; format: cell-based; conditions: BAT 100 μM in injection solution, capillary approach speed 7 μm s^-1, n=30
Procedure: To determine the success or failure of microinjection treatment, Lucifer Yellow CH(LY), a water-soluble fluorescent dye, was added to the injection solution. After injection treatment, if a yellow fluorescence of LY origin was observed within the cell by a fluorescent microscope, then, the injection treatment was judged to have been successful. The variation of the success rate of cell injection was evaluated by the presence or absence of the photosensitizer BAT within the injection solution, and the presence or absence of a BAT excitation light exposure.
Normally, to make microinjection successful, a glass capillary having an opening with a diameter of a few hundred nanometers should be contacted with cells at high speed, to instantly penetrate/perforate the cell membrane or the nucleus membrane physically. […] The micromanipulator was attached to a fluorescence microscope (OLYMPUS OPTICAL, IX70 fluorescence microscope spec). Light of a 100 W […], which is the epi-illumination fluorescence light source equipped in the microscope, was treated by transmitting through an ultraviolet ray excitation filter set (OLYMPUS OPTICAL, U-MWU mirror unit), and the resulting ultraviolet light was used as the excitation source of the photosensitizer. […]

nerve cell line PC12 = experiment: Measurement of membrane resistance and membrane potential following light exposure (patch clamp); format: cell-based; conditions: for change in cell membrane resistance/membrane potential following light exposure: 363 nm argon ion laser
Procedure: Since there is a need to monitor cellular level micro membrane damages, including the recovering process within seconds to a few minutes, the intermembrane potential of the cell membrane, or the ionic current passing through the cell membrane was measured using the patch clamp method, which is an electrophysiology experiment technique.
The photosensitizer BAT was dispersed in HEPES (25 mM,pH7.4) buffer.
Cells were incubated at room temperature within an electrophysiology experimental culture medium.
2H2O, 2.4 mM; MgSO4. 7H2O, 1.3 mM; glucose 10 mM, in which the pH was adjusted to […] by finally adding NaOH. To prevent any influence due to evaporation, the electrophysiology experiment culture medium was changed every 40 min at the latest by a pipette.
BAT was added to a final concentration of 49 μM. Exposed light quantity was in three stages, being 0.47 J/cm^2, 0.94 J/cm^2, and 1.57 J/cm^2.
The solution within the patch electrodes had the composition of KCl 132 mM, NaCl, 8 mM, MgCl2, 2 mM, HEPES 30 mM, Na2ATP 4 mM, GTP 0.3 mM, and EGTA 0.5 mM, in which the pH was adjusted to 7.3 by finally adding NaOH.
As the excitation power source, 50 mW, 363 nm argon ion laser standardly equipped within a confocal laser scanning microscope (CLSM) MRC-1000 UV (BIO-RAD laboratories) was used. 1/16th (¼^th to the direction of the X axis and Y axis, 117 μm×170 μm) of the full screen of the microscope is scanned with the above-described laser beams. Adjustments were done so that the whole image of the patched target cell came into this area. 50 mW laser beam is a 100% output. According to the scanning speed, the exposed duration was selected from 1/16, ¼, 1/32 sec. The light reduction by the lens was also utilized. When the zoom function was used, the light is scanned on a concentrated area smaller than the normal area, and therefore, the light quantity per unit area increases in proportion to the square of the zoom magnification. Since the excitation light has to pass through the plastic of the collagen-coated dish before reaching the cells, there is a necessity to consider light reduction.
Also, in the excitation light exposure, a TTL signal coupled with an electrophysiological recording is suitably transmitted to the excitation light source, to synchronize the exposure and electrical measurement.
At the start of the electrophysiological experiment, the cell membrane potential was maintained between −80 to −60 mV. The resistance of the patch electrode was 3˜4 MΩ, and the above described solution was filled into electrodes, and used.
As for the amplifier for cell membrane potential measurement, Axopatch 1-D (Axon Instruments) was used. The membrane resistance was calculated by the change in membrane potential when a 1 Hz rectangular hyperpolarizing current was passed through for 350 mili sec. […] The measured potential/current value was analyzed by Axoscope ver. 1.1 software (Axon Instruments).
Membrane resistance reflects membrane permeation inhibiting capacity, and membrane potential reflects the active ion transport capacity due to the functions of various intermembrane ion transportation systems and ion permeation inhibiting capacity.
A microinjector was connected to a micro glass pipette held by a micromanipulator, and BAT dispersed solution (BAT concentration was 2 mM, aqueous solvent) was filled into this micro glass pipette. The tip of this glass pipette was connected to a patch electrode and setup within 200 μm proximity of the cells in which the membrane potential/membrane resistance was to be measured. BAT dispersed solution was released by compressing the micro glass pipette to attach BAT onto the cell membrane of target cells.

With NCc1ccc(-c2ccc(-c3ccc(CN)s3)s2)s1 [BAT, 5′5″-bis(aminomethyl)-2,2′:5′,2″-terthiophene] the solubility [1] was “dissolves easily”, the “cell survival rate (LY retention rate)” value (PC12 cells [2]; BAT+LY without UV, 3rd day following treatment) was 30% and the “cell survival rate (LY retention rate)” value (PC12 cells [2]; BAT+LY+UV photosensitizing injection, three to six days following injection treatment) was 90%. The “success rate of the injection” value (PC12 cells [3]; 2 min ultraviolet exposure) was 80%, the “success rate of the injection” value (PC12 cells [3]; no light exposure) was 13% and the “change in cell membrane resistance/membrane potential following light exposure” value (nerve cell line PC12; BAT 49 μM, light quantity 0.47 J/cm^2 (A)) was “a big change was not seen”. For the same molecule, the “change in cell membrane resistance/membrane potential following light exposure” value (nerve cell line PC12; BAT 49 μM, light quantity 0.94 J/cm^2 (B)) was “a decrease in cell membrane resistance/depolarization of the membrane potential occurred”, the “change in cell membrane resistance/membrane potential following light exposure” value (nerve cell line PC12; BAT 49 μM, light quantity 1.57 J/cm^2 (C)) was “both disappeared” and the “time to disappearance of cell membrane resistance/membrane potential” value (nerve cell line PC12; BAT 49 μM, light quantity 1.57 J/cm^2 (C), after a few second lag period) was 8 s. For the same molecule, the “cell membrane potential after laser exposure” value (nerve cell line PC12; BAT 2 mM dispersed solution sprayed onto target cells by micro glass pipette (Example 4)) was “depolarization of the cell membrane potential was observed” and the “change in membrane resistance when only the axon of the cell was exposed to laser beams” value (nerve cell line PC12; only the axon exposed) was “a similar change in membrane resistance was observed”.
